# Paper PMC5684143, “New melanocortin-like peptide of E. coli can suppress inflammation via the mammalian melanocortin-1 receptor (MC1R): possible endocrine-like function for microbes of the gut” (NPJ Biofilms and Microbiomes, 2017)
# Tests used:
# RAW 264.7 cells [1] = experiment: HMGB1-induced TNF release by RAW 264.7 macrophage-like cells; type: cell-based, murine
# Experimental: Fig. 1 MECO-1 attenuates HMGB1-induced TNF release by macrophages in culture. Murine macrophage-like RAW 264.7 cells were incubated for up to 24 h with purified recombinant HMGB1 (0.1 mg/ml) in the absence or presence of MECO-1 (Panel a), or alpha-MSH (Panel b), at 10^−10 and 10^−12 M. The levels of TNF in the culture medium were determined by ELISA and expressed as mean ± SEM of two independent experiments (in duplicate). *p < 0.05, **p < 0.01 vs. control (“HMGB1 alone”). […] In panels c and d, cells were incubated with HMGB1 for 6 h with or without MECO-1 or alpha-MSH (10^−16–10^−6 M). Data represent mean ± SEM of three independent experiments performed in duplicate. With 10^−14 M peptide, results were significant at *p < 0.05, and at 10^−12 M or more were typically **p < 0.01. In our experiments, at concentrations of MECO-1, alpha-MSH, and ACTH of around 1 nM and higher, dose response curves often reverse direction, i.e., turn upward. The reversal is more clearly seen in Fig. 2. The mechanism of the reversal is not known. (Desensitization, receptor inactivation, receptor internalization, and dissociation of dimeric receptors are all plausible candidates.) As a result, the shape of the lower part of the curve and the actual inflection point may vary from experiment to experiment. This feature may be missed when results of several experiments are combined
# (§1) Murine macrophage-like RAW 264.7 cells were obtained from American Type Culture Collection, and were grown in Dulbecco’s Modified Eagle’s Medium (DMEM, Life Technologies) containing 10% (vol/vol) heat-inactivated fetal bovine serum (FBS, Hyclone Lab. Inc.), penicillin 100 U/ml, and streptomycin 100 μg/ml (BioWhittaker Inc.). Cells were suspended in medium and incubated in 24-well or 48-well tissue-culture plates overnight in a humidified incubator (37 °C, 5% CO2). Growth medium was removed and replaced by Opti-MEM I serum-free medium (Life Technologies) overnight. In the experiments, cell monolayers were stimulated with HMGB1 or LPS, in the absence or presence of MECO-1 or alpha-MSH; cell-free supernatants were assayed for TNF by ELISA or HMGB1 by western blotting.
# (§2) Concentrations of TNF and IL-6 were each determined using a commercially available enzyme-linked immunosorbent assay (ELISA) kit (R&D System Inc.) as previously described.[34] The levels of TNF or IL-6 were calculated with reference to standard curves.
# Fig. 3 Antibody to MC1R blocks suppressant effect of MECO-1 and alpha-MSH. Murine macrophage-like RAW 264.7 cells were pretreated with specific antibodies (“anti-MC1R Ab”) against melanocortin-1 receptor (MC1R) for 10 min prior to addition of HMGB1 in the absence or presence of MECO-1 or alpha-MSH at 10^−12 M. At 6 h, the TNF content of the cell-free medium was determined by ELISA, and expressed as mean ± SEM of two independent experiments performed in duplicate. ACTH at the same concentration gave results that were indistinguishable from those of alpha-MSH and MECO-1 (data not shown)
# RAW 264.7 cells [2] = experiment: LPS-induced TNF release by RAW 264.7 cells; type: cell-based, murine; details: LPS 10 ng/ml; peptides 10^-12 M; agouti 10-10^5 pM
# Experimental: as §1, §2
# Fig. 2 Cytokine-induced TNF release inhibited by MECO-1. a Lipopolysaccharide (LPS), derived from the cell wall of Gram-negative bacteria, is a TLR4 and TLR2 agonist. RAW 264.7 cells were treated with MECO-1 and LPS simultaneously and incubated overnight. Supernatants were tested for TNF with ELISA. b Poly I:C, synthetic double stranded RNA, is recognized by TLR3. RAW 264.7 cells were pre-treated with MECO-1 and then stimulated with Poly I:C. Supernatants were tested in ELISA by TNF. c Peptidoglycan (PGN), another TLR2 agonist, is ubiquitous in the cell wall of bacteria. RAW 264.7 cells were pre-treated with MECO-1 and then stimulated with PGN; after overnight stimulation, supernatants were harvested and tested for TNF ELISA. d HMGB-1. Each vertical bar is the mean of three experimental points, using HMGB-1 to induce TNF release. Three sets of three experiments were used for the measurement of inhibition
# Fig. 5 a Bioactive analogues of MECO-1. Murine macrophage-like RAW 264.7 cells were incubated with lipopolysaccharide (LPS, 4 ng/ml) in the absence or presence of MECO-1 or BACTN or BACFR, synthetic peptides based on the C-termini of EF-G of Bacteroides thetaiotamicron and Bacteroides fragilis. EFG-2 refers to human mitochondrial EFG-2 (mtEFG2). For Bacteroides thetaiotamicron, we used a 38-mer consisting of residues 681–703 shown in Fig. 4c followed by 704–718 QDKLIKDFEAKQTEE. For Bacteroides fragilis, we used a 33-mer consisting of residues, 681–703 shown in Fig. 4c followed by 704–713 = QDKLIKDFES. At 6 h after stimulation, aliquots of cell-free medium were examined. In other experiments, the synthetic peptide based on human mitochondrial EF-G1 (mtEFG1) gave results indistinguishable from EF-G2 (data not shown). The precise structure of the synthetic peptides is indicated in the text (see section “Results” and Table 1). Shown is a representative experiment.
# RAW 264.7 cells [3] = experiment: LPS-induced HMGB1 release by RAW 264.7 cells (western blot); type: cell-based, murine; details: LPS 100 ng/ml, peptide 10^-10 M, 16-20 hrs, four independent experiments, P < 0.01
# Experimental: as §1, with “In the experiments, cell monolayers were stimulated with HMGB1 or LPS, in the absence or presence of MECO-1 or alpha-MSH; cell-free supernatants were assayed for TNF by ELISA or HMGB1 by western blotting.” left out
# The levels of HMGB1 in the culture medium or murine serum were measured by western immunoblotting as previously described.[30] […] The relative band intensity was quantified by using the NIH image 1.59 software. The levels of HMGB1 (expressed as % maximum effect) were calculated with reference to standard curves generated with purified rHMGB1 and expressed as mean ± SEM of four experiments.
# Murine macrophage-like RAW 264.7 cells were incubated with LPS (100 ng/ml) in the absence or presence of MECO-1 or alpha-MSH at 10^-10 M. At 16-20 hrs after stimulation, aliquots of cell-free medium were examined. HMGB1 levels in the (conditioned) culture medium were expressed as mean ± SEM of four independent experiments with the peak level (obtained with LPS) set at 100%. […]
# [4] = tested on: human peripheral blood mononuclear cells (PBMC); experiment: HMGB1-induced TNF release by human PBMC-derived macrophages; type: cell-based; details: differentiated human macrophages; HMGB1 6 hours; ELISA; three independent experiments in duplicate
# Experimental: Human PBMC were isolated by density gradient through Ficoll-Paque^TM PLUS centrifugation (Amersham Pharmacia Biotech), and suspended in RPMI 1640 containing 10% (vol/vol) heat-inactivated human serum (BioWhittaker Inc.), penicillin 100 U/ml, and streptomycin 100 μg/ml, and incubated at 37 °C in a humidified incubator with 5% CO2 atmosphere overnight. Non-adherent cells were discarded. Adherent monocytes were washed twice with PBS and were then suspended in 12-well and 24-well tissue culture plates and incubated in the same medium but now enriched with 2.5 ng/ml macrophage colony-stimulating factor for 5–7 days.[33] […]
# as §2
# Human peripheral blood mononuclear cells (PBMC) were isolated by density gradient centrifugation through Ficoll-PaqueTM PLUS, and cultured for 5-7 days in medium containing macrophage colony-stimulating factor (2.5 ng/ml). […] The content of TNF in the cell-free medium was determined by ELISA and expressed as mean ± SEM of three independent experiments performed in duplicate. *p< 0.05, **p< 0.01 vs. control (=HMGB1 alone without added melanocortin peptide).
compound,measurement,setting,value
O=S(=O)(NCCNC/C=C/c1ccc(Br)cc1)c1cccc2cnccc12 [H89],effect of H89 on peptide-mediated reduction of HMGB1-induced TNF accumulation,"RAW 264.7 cells [1]; H89 1mM added 10 minute before, peptides 10^-10 M, 6h, two independent experiments in duplicate",abrogated the effects of the three peptides
Mouse agouti (93-132)-NH2,effect of agouti on attenuation by MECO-1 and alpha-MSH of LPS-induced TNF release,RAW 264.7 cells [2],reversed the attenuation
"adrenocorticotropin (SYSMEHFRWGKPVGKKRRPVKVYPNGAEDESAEAFPLEF; Corticotropin; UniProt P01189 138-176, looked up) [ACTH, mammalian melanocortin hormone ACTH (1-39), purchased from Bachem]",LPS-induced HMGB-1 secretion,RAW 264.7 cells [3],indistinguishable from MECO-1 and alpha-MSH
same,attenuation of HMGB-1-induced TNF release,[4],very similar results
same,suppression of HMGB-1-induced TNF release,"RAW 264.7 cells [1]; RAW 264.7 cells, data not shown","highly significant suppression, typically in the subpicomolar range"
same,TNF accumulation with HMGB1 on co-incubation with peptide,RAW 264.7 cells [1]; peptide 10^−12–10^−8 M,substantially reduced
